Reference: patent publication US20110196000A1, “Use of succinate dehydrogenase (SDH) inhibitors in the treatment of plant species from the family of the true grasses” (Bayer CropScience AG, priority 2010, published 2011)

Legend:
Type in all cases: in vivo
[1] = system: infection-free wheat plants of the cultivar Passat; test: Glasshouse trial: yield components; details: glasshouse, sprays at BBCH 39 and 59
[2] = system: infection-free wheat plants of the cultivar Passat; test: Glasshouse trial: size of the flag leaf; details: at BBCH 83-85
Description: (§1) In a glasshouse trial under controlled conditions, the effect of bixafen was investigated on the physiology, morphology and abiotic stress tolerance of infection-free wheat plants of the cultivar […] plants were grown in 10-litre containers over a period of 4 months. The substrate used was standard earth type ED 73 (Fröndenberg, Germany)+C-Horizont+Sand (4:2:1). The supply of nutrient to the plants took place by feeding with a 0.2% strength Flory 2 liquid fertilizer solution (from Euflor, Munich) once every two weeks. The plants were supplied with water as required. In each component of the trial, 10 repetitions were carried out. To prevent infestation with powdery mildew, Proquinazid (Talius® was applied once. The incidence of aphids and spider mites was avoided by treatments with Karate®, Bulldock® and Sumicidin®. The products under test were applied to the plants, in the form of sequential spray sequences (BBCH 39 and 59). The spray volume was 300 l of water per hectare. [table] Morphological parameters measured, additionally, were the length and width, i.e. the size of the flag leaf. This was greatest with the succinate dehydrogenase (SDH) inhibitor bixafen, in comparison to the other comparison fungicides.

wheat variety Ritmo [3] = test: Plot trial: chlorophyll content of leaves (pigment extraction method of Ziegler and Ehle)
[4] = system: infection-free wheat plants of the cultivar Passat; test: Glasshouse trial: time of heading (ear emergence); design: time of heading of wheat (ears emerged): unit not given here
Description: (§2) In a glasshouse trial under controlled conditions, the effect of bixafen was investigated on the physiology, morphology and abiotic stress tolerance of infection-free wheat plants of the cultivar […] plants were grown in 10-litre containers over a period of 4 months. The substrate used was standard earth type ED 73 (Fröndenberg, Germany)+C-Horizont+Sand (4:2:1). The supply of nutrient to the plants took place by feeding with a 0.2% strength Flory 2 liquid fertilizer solution (from Euflor, Munich) once every two weeks. The plants were supplied with water as required. In each component of the trial, 10 repetitions were carried out.

[5] = system: infection-free wheat plants of the cultivar Passat; test: Glasshouse trial: gas exchange activity of wheat ears; details: development stage BBCH 75
Description: as §2

[6] = system: infection-free wheat plants of the cultivar Passat; test: Glasshouse trial: green leaf area by visual scoring; details: glasshouse
Description: as §1, with “The duration” for “Morphological parameters measured, additionally, were the length and width, i.e. the size”, “green coloration of the leaf area” for “flag leaf. This”, “captured on” for “greatest with”, “basis of regular visual scoring of” for “succinate dehydrogenase (SDH) inhibitor bixafen, in comparison to”, “fraction of the green leaf area.” for “other comparison fungicides.”

wheat variety Ritmo [7] = test: Plot trial: yield components; details: sprays at BBCH 39 and 59
[8] = system: infection-free wheat plants of the cultivar Passat; test: Glasshouse trial: temperature of ears and leaves as measure of transpiration activity
Description: as §2

wheat variety Ritmo [9] = test: Plot trial in Germany: green leaf area by visual scoring; details: sprays at BBCH 39 and 59
Description: In Germany a plot trial was set up with the wheat variety Ritmo in order to investigate the effect of bixafen on the physiology, morphology and abiotic stress tolerance of wheat plants under realistic agricultural conditions. The products under test were applied to the plants, in the form of sequential spray sequences (BBCH 39 and 59). The spray volume was 400 l of water per hectare. In each trial component, 5 repetitions were carried out. [table] The duration of green coloration of the leaf area was captured by regular visual scoring of the fraction of green leaf area.

[10] = BBCH 75 (mature milk), leaf F-1
[11] = BBCH 75 (mature milk), leaf F-2
[12] = BBCH 85 (mature dough), leaf F-1
[13] = BBCH 85 (mature dough), leaf F-2
[14] = 68 days after second fungicide application (so in the source)
[15] = 75 days after second fungicide application (so in the source)
[16] = 82 days after second fungicide application (so in the source)
[17] = 89 days after second fungicide application (so in the source)
[18] = 96 days after second fungicide application (so in the source)
[19] = 103 days after second fungicide application (so in the source)
[20] = 110 days after second fungicide application (so in the source)
[21] = 117 days after second fungicide application (so in the source)
[22] = 7 days after second fungicide application
[23] = 14 days after second fungicide application
[24] = 21 days after second fungicide application
[25] = 28 days after second fungicide application
[26] = 35 days after second fungicide application
[27] = 42 days after second fungicide application
[28] = 49 days after second fungicide application

## CCCN(CC)CC1COC2(CCC(C(C)(C)C)CC2)O1 (centres unmarked) [Spiroxamine]
[1]
  Ears/pot: 40.9
  Harvest Index: 36.3%
  Kernels/ear: 23.2
  Straw: 58.6 g/pot
  TKM (thousand-kernel mass): 35.5 g
  Yield: 33.4 g/pot
[2]
  Length of the flag leaf: 26.1 cm
  Width of the flag leaf: 1.2 cm
[2]; calculated using the formula A = 0.67 × length × width
  Area of the flag leaf: 20.98 cm^2
[2]; untreated = 100
  Area [rel.] of the flag leaf: 96 rel.
Wheat variety Ritmo [3]; BBCH 75 (mature milk), leaf F
  Chlorophyll content: 1471 µg/g
Wheat variety Ritmo [3]; [10]
  Chlorophyll content: 1245 µg/g
Wheat variety Ritmo [3]; [11]
  Chlorophyll content: 707 µg/g
Wheat variety Ritmo [3]; BBCH 85 (mature dough), leaf F
  Chlorophyll content: 114 µg/g
Wheat variety Ritmo [3]; [12]
  Chlorophyll content: 119 µg/g
Wheat variety Ritmo [3]; [13]
  Chlorophyll content: 147 µg/g
[4]; 45 days after sowing
  time of heading of wheat (ears emerged): 10.8
[4]; 50 days after sowing
  time of heading of wheat (ears emerged): 34.1
[4]; 55 days after sowing
  time of heading of wheat (ears emerged): 46.4
[4]; 60 days after sowing
  time of heading of wheat (ears emerged): 57.5
[4]; 65 days after sowing
  time of heading of wheat (ears emerged): 75.5
[4]; 70 days after sowing
  time of heading of wheat (ears emerged): 83.4
[4]; 75 days after sowing
  time of heading of wheat (ears emerged): 91.1
[4]; 80 days after sowing
  time of heading of wheat (ears emerged): 99.1
[4]; 85 days after sowing
  time of heading of wheat (ears emerged): 100
[5]
  Photosynthesis (gas exchange activity of wheat ears): −2.36 a CO2 per ear
  Respiration (gas exchange activity of wheat ears): 2.82 b CO2 per ear
[6]; [14]
  green leaf area of the flag leaf (F): 100 % leaf area
  green leaf area of the second-from-top leaf (F-1): 100 % leaf area
  green leaf area of the third-from-top leaf (F-2): 100 % leaf area
[6]; [15]
  green leaf area of the flag leaf (F): 100 % leaf area
  green leaf area of the second-from-top leaf (F-1): 100 % leaf area
  green leaf area of the third-from-top leaf (F-2): 95 % leaf area
[6]; [16]
  green leaf area of the flag leaf (F): 100 % leaf area
  green leaf area of the second-from-top leaf (F-1): 90 % leaf area
  green leaf area of the third-from-top leaf (F-2): 73 % leaf area
[6]; [17]
  green leaf area of the flag leaf (F): 92 % leaf area
  green leaf area of the second-from-top leaf (F-1): 77 % leaf area
  green leaf area of the third-from-top leaf (F-2): 45 % leaf area
[6]; [18]
  green leaf area of the flag leaf (F): 80 % leaf area
  green leaf area of the second-from-top leaf (F-1): 50 % leaf area
  green leaf area of the third-from-top leaf (F-2): 19 % leaf area
[6]; [19]
  green leaf area of the flag leaf (F): 55 % leaf area
  green leaf area of the second-from-top leaf (F-1): 23 % leaf area
  green leaf area of the third-from-top leaf (F-2): 7 % leaf area
[6]; [20]
  green leaf area of the flag leaf (F): 23 % leaf area
  green leaf area of the second-from-top leaf (F-1): 6 % leaf area
  green leaf area of the third-from-top leaf (F-2): 0 % leaf area
[6]; [21]
  green leaf area of the flag leaf (F): 3 % leaf area
  green leaf area of the second-from-top leaf (F-1): 0 % leaf area
  green leaf area of the third-from-top leaf (F-2): 0 % leaf area
Wheat variety Ritmo [7]
  Ears/m^2: 409
  Harvest Index: 59.3
  Straw: 514 g m^−2
  TKM (thousand-kernel mass): 44.2 g
  Yield: 7.7 t ha^−1
[8]; BBCH 75, ear
  Temperature (as a measure of the transpiration activity): 23.2 °C
[8]; BBCH 75, leaf
  Temperature (as a measure of the transpiration activity): 22.4 °C
[8]; BBCH 80, ear
  Temperature (as a measure of the transpiration activity): 20.2 °C
[8]; BBCH 80, leaf
  Temperature (as a measure of the transpiration activity): 16.4 °C
[8]; BBCH 85, ear
  Temperature (as a measure of the transpiration activity): 25.1 °C
[8]; BBCH 85, leaf
  Temperature (as a measure of the transpiration activity): 23.7 °C
[8]; BBCH 90, ear
  Temperature (as a measure of the transpiration activity): 24.2 °C
[8]; BBCH 90, lear (so in the source)
  Temperature (as a measure of the transpiration activity): 23.2 °C
Wheat variety Ritmo [9]; [22]
  green leaf area of the flag leaf: 98.3 % leaf area
  green leaf area of the second-from-top leaf (F-1): 97.4 % leaf area
  green leaf area of the third-from-top leaf (F-2): 94.1 % leaf area
Wheat variety Ritmo [9]; [23]
  green leaf area of the flag leaf: 97.9 % leaf area
  green leaf area of the second-from-top leaf (F-1): 95.8 % leaf area
  green leaf area of the third-from-top leaf (F-2): 93.3 % leaf area
Wheat variety Ritmo [9]; [24]
  green leaf area of the flag leaf: 92.7 % leaf area
  green leaf area of the second-from-top leaf (F-1): 85.8 % leaf area
  green leaf area of the third-from-top leaf (F-2): 78.1 % leaf area
Wheat variety Ritmo [9]; [25]
  green leaf area of the flag leaf: 82.3 % leaf area
  green leaf area of the second-from-top leaf (F-1): 69.7 % leaf area
  green leaf area of the third-from-top leaf (F-2): 51.7 % leaf area
Wheat variety Ritmo [9]; [26]
  green leaf area of the flag leaf: 48.6 % leaf area
  green leaf area of the second-from-top leaf (F-1): 31.7 % leaf area
  green leaf area of the third-from-top leaf (F-2): 15.7 % leaf area
Wheat variety Ritmo [9]; [27]
  green leaf area of the flag leaf: 5.5 % leaf area
  green leaf area of the second-from-top leaf (F-1): 0 % leaf area
  green leaf area of the third-from-top leaf (F-2): 0 % leaf area
Wheat variety Ritmo [9]; [28]
  green leaf area of the second-from-top leaf (F-1): 0 % leaf area

## O=C(Nc1ccccc1-c1ccc(Cl)cc1)c1cccnc1Cl [Boscalid, 2-chloro-N-(4′-chlorobiphenyl-2-yl)nicotinamide]
Wheat variety Ritmo [3]; BBCH 75 (mature milk), leaf F
  Chlorophyll content: 1597 µg/g
Wheat variety Ritmo [3]; [10]
  Chlorophyll content: 1505 µg/g
Wheat variety Ritmo [3]; [11]
  Chlorophyll content: 826 µg/g
Wheat variety Ritmo [3]; BBCH 85 (mature dough), leaf F
  Chlorophyll content: 188 µg/g
Wheat variety Ritmo [3]; [12]
  Chlorophyll content: 160 µg/g
Wheat variety Ritmo [3]; [13]
  Chlorophyll content: 110 µg/g
Wheat variety Ritmo [7]
  Ears/m^2: 444
  Harvest Index: 58.6
  Straw: 514 g m^−2
  TKM (thousand-kernel mass): 44.6 g
  Yield: 7.8 t ha^−1
Wheat variety Ritmo [9]; [22]
  green leaf area of the flag leaf: 96.0 % leaf area
  green leaf area of the second-from-top leaf (F-1): 94.4 % leaf area
  green leaf area of the third-from-top leaf (F-2): 90.3 % leaf area
Wheat variety Ritmo [9]; [23]
  green leaf area of the flag leaf: 95.5 % leaf area
  green leaf area of the second-from-top leaf (F-1): 91.8 % leaf area
  green leaf area of the third-from-top leaf (F-2): 85.8 % leaf area
Wheat variety Ritmo [9]; [24]
  green leaf area of the flag leaf: 86.1 % leaf area
  green leaf area of the second-from-top leaf (F-1): 74.7 % leaf area
  green leaf area of the third-from-top leaf (F-2): 61.5 % leaf area
Wheat variety Ritmo [9]; [25]
  green leaf area of the flag leaf: 73.6 % leaf area
  green leaf area of the second-from-top leaf (F-1): 60.0 % leaf area
  green leaf area of the third-from-top leaf (F-2): 41.0 % leaf area
Wheat variety Ritmo [9]; [26]
  green leaf area of the flag leaf: 43.2 % leaf area
  green leaf area of the second-from-top leaf (F-1): 25.5 % leaf area
  green leaf area of the third-from-top leaf (F-2): 4.6 % leaf area
Wheat variety Ritmo [9]; [27]
  green leaf area of the flag leaf: 7.0 % leaf area
  green leaf area of the second-from-top leaf (F-1): 0 % leaf area
  green leaf area of the third-from-top leaf (F-2): 0 % leaf area
Wheat variety Ritmo [9]; [28]
  green leaf area of the second-from-top leaf (F-1): 0 % leaf area
